Source: the NIST ThermoML archive (doi:10.1016/j.jct.2013.12.022)
± gives the expanded uncertainty stated by the source.

What was measured:
[1] = 100 kPa, Liquid; for viscosity: Cone and plate viscometry; for mass density: Vibrating tube method
[2] = wn = mass fraction of the nth substance listed; settings: 100 kPa, Liquid, w1 = 0.8465; for viscosity: Cone and plate viscometry; for mass density: Vibrating tube method

viscosity ([1]; 288.15 K) [mPa·s] | mass density ([1]; 288.15 K) [kg/m3] | viscosity ([1]; 293.15 K) [mPa·s] | mass density ([1]; 293.15 K) [kg/m3] | viscosity ([1]; 298.15 K) [mPa·s] | mass density ([1]; 298.15 K) [kg/m3] | viscosity ([1]; 303.15 K) [mPa·s] | mass density ([1]; 303.15 K) [kg/m3] | viscosity ([1]; 308.15 K) [mPa·s] | mass density ([1]; 308.15 K) [kg/m3] | viscosity ([1]; 313.15 K) [mPa·s] | mass density ([1]; 313.15 K) [kg/m3] | viscosity ([1]; 318.15 K) [mPa·s] | mass density ([1]; 318.15 K) [kg/m3] | viscosity ([1]; 323.15 K) [mPa·s] | mass density ([1]; 323.15 K) [kg/m3] | viscosity ([1]; 328.15 K) [mPa·s] | mass density ([1]; 328.15 K) [kg/m3] | viscosity ([1]; 333.15 K) [mPa·s] | mass density ([1]; 333.15 K) [kg/m3] | further results | SMILES
1953 ± 180 | 890.86 ± 4.3 | 1446.3 ± 130 | 887.72 ± 4.3 | 1058.2 ± 91 | 884.55 ± 4.3 | 782.72 ± 65 | 881.54 ± 4.2 | 587.62 ± 47 | 878.58 ± 4.2 | 447.95 ± 34 | 875.62 ± 4.2 | 346.95 ± 26 | 872.67 ± 4.2 | 272.37 ± 20 | 869.72 ± 4.1 | 217.4 ± 15 | 866.77 ± 4.1 | 175.07 ± 12 | 863.87 ± 4.1 | mass density ([1]; 338.15 K): 860.99 ± 4.1 kg/m3; mass density ([1]; 343.15 K): 858.1 ± 4 kg/m3; mass density ([1]; 348.15 K): 855.22 ± 4 kg/m3; viscosity ([1]; 353.15 K): 80.99 ± 5.3 mPa·s; mass density ([1]; 353.15 K): 852.33 ± 4 kg/m3; mass density ([1]; 358.15 K): 849.44 ± 4 kg/m3; mass density ([1]; 363.15 K): 846.56 ± 3.9 kg/m3; viscosity ([1]; 373.15 K): 42.79 ± 2.8 mPa·s; viscosity ([1]; 393.15 K): 24.53 ± 1.6 mPa·s; viscosity ([1]; 413.15 K): 15.44 ± 1 mPa·s; viscosity ([1]; 433.15 K): 10.17 ± 0.66 mPa·s | CC(CC(C)(C)C)CP(=O)([O-])CC(C)CC(C)(C)C.CCCCCCCCCCCCCC[P+](CCCCCC)(CCCCCC)CCCCCC
1.58 ± 0.1 | 753.43 ± 0.59 | 1.47 ± 0.09 | 749.81 ± 0.58 | 1.35 ± 0.08 | 746.18 ± 0.58 | 1.24 ± 0.08 | 742.55 ± 0.58 | 1.14 ± 0.07 | 738.91 ± 0.57 | 1.06 ± 0.07 | 735.26 ± 0.57 | 0.99 ± 0.06 | 731.61 ± 0.57 | 0.93 ± 0.06 | 727.95 ± 0.57 | 0.87 ± 0.05 | 724.29 ± 0.56 | 0.82 ± 0.05 | 720.61 ± 0.56 |  | CCCCCCCCCCCC [dodecane]
 |  |  |  |  |  |  |  |  |  |  |  |  |  |  |  |  |  |  |  | viscosity ([2]; 288.15 K): 286.96 ± 21 mPa·s; mass density ([2]; 288.15 K): 921.09 ± 3.5 kg/m3; viscosity ([2]; 293.15 K): 211.13 ± 15 mPa·s; mass density ([2]; 293.15 K): 917.76 ± 3.5 kg/m3; viscosity ([2]; 298.15 K): 156.74 ± 11 mPa·s; mass density ([2]; 298.15 K): 914.4 ± 3.5 kg/m3; viscosity ([2]; 303.15 K): 119.54 ± 7.9 mPa·s; mass density ([2]; 303.15 K): 911.03 ± 3.5 kg/m3; viscosity ([2]; 308.15 K): 93.22 ± 6.1 mPa·s; mass density ([2]; 308.15 K): 907.66 ± 3.4 kg/m3; viscosity ([2]; 313.15 K): 74.08 ± 4.8 mPa·s; mass density ([2]; 313.15 K): 904.29 ± 3.4 kg/m3; viscosity ([2]; 318.15 K): 60.01 ± 3.8 mPa·s; mass density ([2]; 318.15 K): 900.95 ± 3.4 kg/m3; viscosity ([2]; 323.15 K): 49.03 ± 3.1 mPa·s; mass density ([2]; 323.15 K): 897.66 ± 3.4 kg/m3; viscosity ([2]; 328.15 K): 40.7 ± 2.6 mPa·s; mass density ([2]; 328.15 K): 894.18 ± 3.3 kg/m3; viscosity ([2]; 333.15 K): 34.16 ± 2.2 mPa·s; mass density ([2]; 333.15 K): 890.61 ± 3.3 kg/m3 | CC(CC(C)(C)C)CP(=O)([O-])CC(C)CC(C)(C)C.CCCCCCCCCCCCCC[P+](CCCCCC)(CCCCCC)CCCCCC + O
